Patent US11000537B2, “Composition comprising novel ginsenoside” (AMOREPACIFIC CORPORATION, priority 2018, dated 2021)

Columns and labels:
[1] = tested on: FAS (Fatty acid synthase); test: FAS gene expression in HepG2 (qPCR); format: cell-based; details: 24 hours
Protocol: The hepatocyte cell line HepG2 purchased from the International Center for Biological Resources (ATCC) were placed in Dulbecco's Modified Eagle's Medium (Sigma) to which 10% fetal bovine serum (Hyclone) and 1% penicillin/streptomycin (Sigma) were added, and cultured in a 5% CO2 incubator. […] After 24 hours of treatment, cells were collected, RNA was extracted using Trizol™ reagent (Thermo Fisher Scientific), and cDNA was synthesized using RevertAid™ 1st strand cDNA synthesis kit (Thermo Fisher Scientific). Bio-Rad's CFX96 real-time quantitative PCR (qPCR) instrument was used to observe the expression of the genes SREBP1c (sterol-regulatory element binding protein 1c), ACC (acetyl-CoA carboxylase) and FAS (Fatty acid synthase), which induces fat synthesis or accumulation.

[2] = tested on: adipocyte cell 3T3-L1; test: fat accumulation in adipocytes (Oil-red O staining); format: cell-based
Protocol: The adipocyte cell 3T3-L1 purchased from the International Center for Biological Resources (ATCC) were placed in Dulbecco's Modified Eagle's Medium (Sigma) to which 10% fetal bovine serum (Hyclone) and 1% penicillin/streptomycin (Sigma) were added, and cultured in a 5% CO2 incubator. In order to differentiate preadipocytes into adipocytes, the cells were filled in a culture plate and cultured. After 48 hours, the cells were replaced with Dulbecco's modified eagle medium (DMEM) to which 10% of fetal bovine serum (Hyclone), 0.5 mM of 3-isobutyl-1-methylxanthine (Sigma), 1 μM of dexamethasone (Sigma), 5 μg/ml of insulin (Sigma), 1% of penicillin/streptomycin (Sigma) were added and further cultured for 48 hours. […] As a control to confirm the effect of inhibiting adipocyte differentiation, 20 μM of bisphenol A diglycidyl ether (BADGE) (Sigma), a PPARγ (Peroxisome proliferator-activated receptor gamma) antagonist, was used. Thereafter, the cells were further cultured for 10 days while being replaced with a medium containing 10% FBS and 5 μg/ml insulin and 1% penicillin/streptomycin at two-day intervals to induce adipocyte differentiation.
Differentiated adipocytes treated with each of the seven types of ginsenosides were fixed with formaldehyde solution (Sigma), stained with Oil-red O staining solution (Sigma), and then dissolved with isopropanol (Sigma), and then the amount of the stained fat was quantified by measuring at 490 nm absorbance.

[3] = target: T1, pancreatic α-amylase (Sus scrofa, UniProt P00690); test: α-amylase enzyme activity inhibition; format: biochemical
T1 construct: purchased Sigma
T1 sequence (P00690 16-511): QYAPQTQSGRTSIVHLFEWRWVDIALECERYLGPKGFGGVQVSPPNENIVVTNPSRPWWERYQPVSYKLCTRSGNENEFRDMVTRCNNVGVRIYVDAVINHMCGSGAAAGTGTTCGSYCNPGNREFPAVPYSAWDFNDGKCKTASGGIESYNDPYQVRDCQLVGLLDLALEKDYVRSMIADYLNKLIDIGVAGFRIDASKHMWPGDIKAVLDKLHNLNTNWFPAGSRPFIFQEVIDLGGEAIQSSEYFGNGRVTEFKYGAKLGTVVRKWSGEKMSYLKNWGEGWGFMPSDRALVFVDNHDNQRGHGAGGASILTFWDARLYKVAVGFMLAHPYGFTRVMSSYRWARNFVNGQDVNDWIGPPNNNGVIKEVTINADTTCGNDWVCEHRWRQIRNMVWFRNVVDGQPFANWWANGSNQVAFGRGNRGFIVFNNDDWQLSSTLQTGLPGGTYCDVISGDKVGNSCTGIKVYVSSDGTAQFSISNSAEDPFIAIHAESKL
Protocol: (§1) As a polysaccharide degrading enzyme, pancreatic α-amylase and α-glucosidase were purchased from Sigma, and the enzyme activity of novel ginsenoside GS #10, which is an example of the present disclosure, isolated from Ginseng seed extract and ginsenosides GS #01-GS #06, which are comparative examples of the present disclosure, was measured. In order to measure α-amylase activity, enzyme solution was prepared by dissolving BSA 0.1 g, 0.01 g/L NaN3, α-amylase 0.2857 g in 50 mL of PBS (phosphate buffered saline), and 5 mM of p-nitrophenyl-α-D-maltopentoglycoside was dissolved in another PBS to make a substrate solution. 0.1 mL of the test substance was added to 0.5 mL of the enzyme solution, and then the initial absorbance was measured at 405 nm. After adding 0.5 mL of the substrate solution and reacting it for 5 minutes, the absorbance was measured again. The change in enzyme activity was measured by the difference in absorbance between the two reactions. The method for measuring α-glucosidase activity is the same as the method for measuring α-amylase activity, and differs only in α-glucosidase and substrate (p-nitrophenyl-α-D-glucopyranoside). As a positive control to observe the inhibition of enzyme activity, acarbose, which is an α-amylase inhibitor and α-glucosidase inhibitor derived from wheat seed sold by Sigma, was used.

[4] = tested on: HepG2 cells; test: triglyceride accumulation in hepatocytes (Triglyceride Assay Kit); format: cell-based
Text: In addition, in order to investigate whether inhibition of the expression of fat synthesis-related genes by ginsenoside derived from Ginseng seed may be involved in actual fat synthesis and accumulation, HepG2 cells were used to treat seven ginsenosides (GS #01-GS #06, GS #10; […]) and the control group (fenofibrate, FF) in the same manner as above, and then the Triglyceride Assay Kit (Abcam) was used to measure the amount of triglyceride (TG) accumulated in hepatocytes.

[5] = tested on: 3T1-L1 adipocytes; test: glucose uptake (glucose transport) in differentiated adipocytes; format: cell-based; details: 1, 10 μM; compared with ginsenosides Rg1, Rg3, Rb1; FIG. 16
[6] = tested on: α-glucosidase; test: α-glucosidase enzyme activity inhibition; format: biochemical
Protocol: as §1

CC1(C)C(=O)CC[C@@]2(C)C1[C@@H](O[C@H]1OC(CO)[C@H](O)C(O)C1O[C@H]1OC(CO)[C@H](O)C(O)C1O)C[C@]1(C)C2C[C@@H](O)C2C([C@]3(C)CC[C@H](C(C)(C)O)O3)CC[C@]21C (stereo partly drawn) [GS #10, (20S,24R)-6-O-β-D-glucopyranosyl(1→2)-β-D-glucopyranoside-dammar-3-one-20,24-epoxy-6a,12b,25-triol]
FAS expression inhibitory effect ([1]; 10 μM, HepG2, FIG. 20): significantly higher expression inhibitory effect
FAS expression inhibitory effect ([1]; 1, 10 μM, compared with Rg1, Rg3, Rb1, FIG. 25): far superior in lipid metabolism inhibitory effect
fat accumulation inhibitory effect in adipocytes ([2]; 1 μM and 10 μM, compared with Rg1, Rg3, Rb1, FIG. 38): far superior in adipocyte differentiation inhibition and fat accumulation inhibitory effect
fat accumulation inhibitory effect in adipocytes ([2]; 10 μM during 48 hours of differentiation, FIG. 34): most excellent fat accumulation inhibitory effect
α-amylase activity inhibitory effect ([3]; 1, 10 μM, compared with ginsenosides Rg1, Rg3, Rb1, FIG. 14): much superior
α-amylase activity inhibitory effect ([3]; Test Example 1, FIG. 11, ginseng seed ginsenosides compared): most excellent α-amylase activity inhibitory effect
inhibitory effect of lipid (triglyceride) accumulation in hepatocytes ([4]; 10 μM, HepG2, FIG. 21): most excellent inhibitory effect of lipid accumulation in hepatocytes
inhibition of triglyceride accumulated in hepatocytes ([4]; 1, 10 μM, compared with Rg1, Rg3, Rb1, FIG. 26): far superior in lipid metabolism inhibitory effect
glucose transport ability [5]: much superior
α-glucosidase activity inhibitory effect ([6]; 1, 10 μM, compared with ginsenosides Rg1, Rg3, Rb1, FIG. 15): much superior
α-glucosidase activity inhibitory effect ([6]; Test Example 1, FIG. 12, ginseng seed ginsenosides compared): high inhibitory effect on α-glucosidase activity
